US20110014669A1, “Production of 1,4 Butanediol in a Microorganism” (Microbia, Inc., priority 2009, published 2011)
Where two headings read alike, the source gives them in different places.

Experiments:
[1] = system: S. cerevisiae strains (CEN.PK and Fermentis); settings: 135 g/L of BDO
Protocol: (§1) For each experiment, 50 mL of media was filter-sterilized before adding to pre-sterilized 250 mL triple baffled shake flasks. […] Each strain was grown in four different shake flasks.
(§2) Inocula were freshly grown on agar plates, cotton swabbed into a sterile Falcon® tube containing the same medium used in the shake flask and mixed well. The cell suspension was then inoculated into the prepared shake flasks to initiate the growth evaluation. The growth for each strain was monitored by measuring the OD (at 660 nm) and pH over the time course. If the medium contained glucose, such as Difco® Yeast Malt medium (YM), glucose concentration was monitored by using a YSI 2700 Select Biochemistry Analyzer.
(§3) Since different media and growth conditions were used, results were expressed as % of growth where the control, no BDO flask, represented 100% growth.

[2] = system: Zygosaccharomyces bailii (ATCC 60594)
[3] = system: Corynebacterium glutamicum (ATCC 13032); settings: FIG. 12A
Protocol: as §1, §2, §3

[4] = system: Pseudomonas putida (ATCC 700801)
Protocol: as §1, §2, §3

[5] = system: Zymomonas mobilis (ATCC 31821); settings: 90 g/L and 135 g/L of BDO
Protocol: as §1, §2, §3

[6] = system: Yarrowia lipolytica (ATCC 20228)
4-hydroxybutanal = experiment: Enzyme assay, oxidoreductase (step A6), cell lysates; format: biochemical; parameters: key: +: measureable activity detected in the assay; −: no measurable activity detected in the assay; settings: BDO biosynthetic pathway step A6
Protocol: Enzyme expression and crude lysate preparation. The enzymatic activity of each candidate enzyme is evaluated, first in E. coli and subsequently in C. glutamicum. It will be apparent to one of skill in the art that the expression and lysate preparations may need to be modified depending on the host cell and recombinant gene of interest.
E. coli: E. coli strains transformed with expression clones, for example, pUC18 or MB4124 based clones having a medium strong constitutive promoter regulating the recombinant gene of interest, are grown aerobically in LB medium (Difco) containing the appropriate antibiotic(s). At an OD600 of 0.5, IPTG is added to a final concentration of 0.25 mM. The cultures are grown to a final OD600 of 1.5 at which time the cells are collected and harvested by centrifugation. Cell pellets are resuspended in BugBuster (Novagen) reagent containing benzonase and lysozyme. Alternatively, E. coli strains transformed with expression clones, are grown overnight aerobically at 37° C. in BHI containing the appropriate antibiotic(s). 300 μL of fresh overnight culture is used to inoculate 2.7 mL BHI containing 0.25 mM IPTG and the appropriate antibiotic. The cultures are grown aerobically for 4-5 hours at 37° C. at which time the cells are collected and harvested by centrifugation. Cell pellets are frozen at −80° C. for at least 15 minutes, then thawed and resuspended in BugBuster (Novagen) reagent. Lysis and lysate collection are performed according to the manufacturer's instructions and, for example, may involve use of a sonicator and/or French press. Cleared lysates are stored on ice until enzyme assays are performed. […]
Protein Assays. Protein concentrations in lysates are determined according to the methods of Bradford et al. (Anal. Biochem. 72:248-254 [1976]) or by the method of Smith et al. (Anal. Biochem. 150(1):76-85 [1985]) and lysates are assayed according to the methods below. […]

[7] = 90 g/L and 135 g/L of BDO, loss of cell viability

OCCCCO [BDO, 1,4-butanediol]
tolerance to BDO [1]: greater tolerance than E. coli
growth in the presence of BDO ([2]; 20 g/L of BDO): able to grow
growth in the presence of BDO [2, 7]: completely inhibited growth
growth in the presence of BDO ([3]; 90 g/L and 135 g/L of BDO): grew better than the rest of strains
growth in the presence of BDO ([3]; 135 g/L BDO, compared with Z. mobilis): grew better than Z. mobilis
cell density in the presence of BDO ([4]; 20 g/L of BDO, relative to no-BDO control): approximately twice of the control
growth in the presence of BDO ([4]; 90 g/L and 135 g/L BDO, FIG. 12B): grew poorly
growth in the presence of BDO [5]: grew better than the rest of strains
growth in the presence of BDO ([6]; 20 g/L of BDO): able to grow
growth in the presence of BDO [6, 7]: completely inhibited growth

B1: DhaTCf: Enzyme candidate for BDO biosynthetic pathway step A6, SEQ ID NO. 48 (protein, listed as Citrobacter freundii)
chain: MSYRMFDYLVPNVNFFGPNAISVVGERCKLLGGKKALLVTDKGLRAIKDGAVDKTLTHLREAGIDVVVFDGVEPNPKDTNVRDGLEVFRKEHCDIIVTVGGGSPHDCGKGIGIAATHEGDLYSYAGIETLTNPLPPIVAVNTTAGTASEVTRHCVLTNTKTKVKFVIVSWRNLPSVSINDPLLMLGKPAPLTAATGMDALTHAVEAYISKDANPVTDAAAIQAIRLIARNLRQAVALGSNLKARENMAYASLLAGMAFNNANLGYVHAMAHQLGGLYDMPHGVANAVLLPHVARYNLIANPEKFADIAEFMGENTDGLSTMDAAELAIHAIARLSADIGIPQHLRDLGVKEADFPYMAEMALKDGNAFSNPRKGNEKEIAEIFRQAF
Enzyme Assay (4-hydroxybutanal): −

B2: AdhBZm: Enzyme candidate for BDO biosynthetic pathway step A6, SEQ ID NO. 50 (protein, listed as Zymomonas mobilis)
chain: MASSTFYIPFVNEMGEGSLEKAIKDLNGSGFKNALIVSDAFMNKSGVVKQVADLLKAQGINSAVYDGVMPNPTVTAVLEGLKILKDNNSDFVISLGGGSPHDCAKAIALVATNGGEVKDYEGIDKSKKPALPLMSINTTAGTASEMTRFCIITDEVRHVKMAIVDRHVTPMVSVNDPLLMVGMPKGLTAATGMDALTHAFEAYSSTAATPITDACALKAASMIAKNLKTACDNGKDMPAREAMAYAQFLAGMAFNNASLGYVHAMAHQLGGYYNLPHGVCNAVLLPHVLAYNASVVAGRLKDVGVAMGLDIANLGDKEGAEATIQAVRDLAASIGIPANLTELGAKKEDVPLLADHALKDACALTNPRQGDQKEVEELFLSAF
Enzyme Assay (4-hydroxybutanal): +
